pIC50: −log10 of the molar value. Activity calls are given as the source filed them. The calls are words filed in the database; no cut-off is given here.
Experiments:
[1] = biological target: T1, Ubiquitin carboxyl-terminal hydrolase 2 (Homo sapiens, UniProt O75604); assay: (§1) Inhibition of recombinant human N-terminal His-tagged USP2 catalytic domain (258 to 605 residues) expressed in Escherichia coli BL21(DE3) using human N-terminal GST-tagged UBA52 as substrate pretreated for 10 mins followed by substrate addition after 60 mins by coomassie staining based assay
T1 sequence (O75604 whole entry): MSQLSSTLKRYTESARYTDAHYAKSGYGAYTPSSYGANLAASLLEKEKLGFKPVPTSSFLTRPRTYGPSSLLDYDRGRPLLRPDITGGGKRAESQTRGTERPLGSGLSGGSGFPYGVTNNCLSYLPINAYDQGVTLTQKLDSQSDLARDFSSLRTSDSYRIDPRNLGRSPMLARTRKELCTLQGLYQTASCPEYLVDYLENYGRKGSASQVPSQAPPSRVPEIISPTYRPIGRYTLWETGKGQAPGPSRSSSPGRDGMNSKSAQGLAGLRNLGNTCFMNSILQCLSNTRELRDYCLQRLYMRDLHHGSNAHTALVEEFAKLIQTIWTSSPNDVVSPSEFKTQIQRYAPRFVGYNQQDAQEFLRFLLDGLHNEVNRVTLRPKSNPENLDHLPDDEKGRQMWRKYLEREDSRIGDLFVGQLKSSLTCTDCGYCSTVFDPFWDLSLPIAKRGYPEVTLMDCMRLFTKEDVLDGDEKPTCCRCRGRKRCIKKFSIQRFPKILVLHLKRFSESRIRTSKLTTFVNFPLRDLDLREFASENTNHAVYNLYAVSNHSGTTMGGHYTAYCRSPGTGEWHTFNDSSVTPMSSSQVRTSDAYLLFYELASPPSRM

[2] = biological target: T2, Ubiquitin carboxyl-terminal hydrolase 2 (Homo sapiens) (UniProt O75604); assay: as §1, with “BL21(DE3) at 100 uM” for “BL21(DE3)”
T2 sequence (whole entry): T1 sequence (O75604 whole entry)

pIC50 [1]: 4.13 to 4.18
inhibition [2]: Active
Compound: CC(=O)Nc1cccc(CNC(=O)c2sc3ccccc3c2OCc2ccccc2)c1

— ChEMBL document CHEMBL4052809, “Development of a highly reliable assay for ubiquitin-specific protease 2 inhibitors” (Bioorg Med Chem Lett, 2017)
